Patent publication US20020016330A1, “Materials and methods for killing nematodes and nematode eggs” (priority 2000, published 2002)

What was measured:
Caenorhabditis elegans [1] = experiment: C. elegans L1 nematicidal dose response, 5 day visual viability score (3-fold dilutions); format: in vivo; set-up: key: Dead: only stiff L1s (no movement); Dead (L4): worms are dead, but at a later larval stage; majority of worms are L1 (based on size); majority of worms are L2 (based on size); majority of worms are L3 (based on size); majority of worms are L4 (based on size); AD: majority of worms are adult; #AD: 5 adult worms or less; B!: sterile (0-25 progeny); B: low broodsize (25-100 progeny); ˜B: moderate broodsize (100-250 progeny); <: reduced broodsize (250-500 progeny); OK: no effect (˜1000+ progeny); settings: Table 3, procedure of Example 2; for 5 Day Visual Score V6: 0.3 μM; for 5 Day Visual Score V5: 0.9 μM; for 5 Day Visual Score V4: 2.6 μM; for 5 Day Visual Score V3: 7.8 μM; for 5 Day Visual Score V2: 23.3 μM; for 5 Day Visual Score V1: 70 μM
Method: Caenorhabditis elegans adults were grown on Nematode Growth Medium (NGM) until they produced eggs, then the adults were removed.
The eggs were allowed to hatch, and the L1 larvae collected. See The Nematode Caenorhabditis elegans (1988) Cold Spring Harbor Laboratory Press. Using a Matrix Programmable Pipette, the L1s were distributed into 96-well tissue culture plates, 20 L1 in 50 μl NGM per well. Antibiotic/Antimyotic was added to each well, and 1% by weight E. coli strain HB101. The subject anthelmintic compounds were stored at 5 mM in 100% DMSO. 0.7 μl of compounds 1-31 were added to the left-most column of wells to yield a final concentration of 70 μM in 1.4% DMSO, with 1.4% DMSO only as the control. The compounds were then subjected to 5 more 3-fold dilutions from left to right to yield 6 column concentrations of 70 μM, 23.3 μM, 7.8 μM, 2.6 μM, 0.9 μM, and 0.3 μM. Plates were stored in air-tight Rubbermaid plastic boxes at 20° C. The nematodes had cleared all control wells by day 4, and nematode viability was scored by visual examination under a 100× dissecting microscope on day 5. A visual viability scoring system was used as follows:
Column VI has a compound concentration of 70 μM with sequential 3-fold dilutions reported in columns V2, V3, V4, V5, and V6, respectively, such that the V6 concentration was 0.3 μM.
(§1) The nematicidal activity of anthelmintic Compositions 48-68 were determined in accordance with the procedure outlined in Example 2.

Caenorhabditis elegans [2] = experiment: Initial HTS Run (mOD, % Run, visual score); set-up: key to Initial HTS Run Visual Score: Dead: only stiff L1s (no movement); Dead (L4): worms are dead, but at a later larval stage; majority of worms are L1 (based on size); majority of worms are L2 (based on size); majority of worms are L3 (based on size); majority of worms are L4 (based on size); AD: majority of worms are adult; #AD: 5 adult worms or less; B!: sterile (0-25 progeny); B: low broodsize (25-100 progeny); ˜B: moderate broodsize (100-250 progeny); <: reduced broodsize (250-500 progeny); OK: no effect (˜1000+ progeny); settings: in vivo
Method: as §1

Caenorhabditis elegans [3] = experiment: Follow-up HTS Run (mOD, % Run, visual score); settings: in vivo
Method: as §1

[4] = test system: root-knot nematode, Meloidogyne incognita; settings: in vivo; cited from earlier work

| SMILES | 5 Day Visual Score V6 (Caenorhabditis elegans [1]) | 5 Day Visual Score V5 (Caenorhabditis elegans [1]) | 5 Day Visual Score V4 (Caenorhabditis elegans [1]) | 5 Day Visual Score V3 (Caenorhabditis elegans [1]) | 5 Day Visual Score V2 (Caenorhabditis elegans [1]) | 5 Day Visual Score V1 (Caenorhabditis elegans [1]) | Initial HTS Run % Run (Caenorhabditis elegans [2]) [%] | Initial HTS Run Visual Score (Caenorhabditis elegans [2]) | Initial HTS Run mOD (Caenorhabditis elegans [2]) [mOD] | Follow-up HTS Run % Run (Caenorhabditis elegans [3]) [%] | Follow-up HTS Run Visual Score (Caenorhabditis elegans [3]) | Follow-up HTS Run mOD (Caenorhabditis elegans [3]) [mOD] | activity against the root-knot nematode [4] |
| --- | --- | --- | --- | --- | --- | --- | --- | --- | --- | --- | --- | --- | --- |
| Cc1cccc2scc(CC(=O)Nc3nc(C(C)(C)C)cs3)c12 [AKC 170] | OK (no effect (˜1000+ progeny)) | OK (no effect (˜1000+ progeny)) | OK (no effect (˜1000+ progeny)) | OK (no effect (˜1000+ progeny)) | #AD/ | L2 | 111 | L3 | 136 | 139 | L4/AD/B! | 223 | – |
| CCCCCCCCS(=O)(=O)N1CCN(C(=O)C=Cc2cccc(C(F)(F)F)c2)CC1C(=O)NCc1ccccc1C(F)(F)F (stereo not shown) [AKC 173] | OK (no effect (˜1000+ progeny)) | OK (no effect (˜1000+ progeny)) | OK (no effect (˜1000+ progeny)) | OK (no effect (˜1000+ progeny)) | – | – | 98 | – | 120 | 107 | – | 172 | – |
| CC[C@H](C)[C@H]1O[C@]2(CC(O)[C@@H]1C)C[C@@H]1C[C@@H](C/C=C(\C)[C@@H](OC3CC(OC)C(OC4CC(OC)C(O)C(C)O4)C(C)O3)[C@@H](C)/C=C/C=C3\CO[C@@H]4[C@H](O)C(C)=C[C@@H](C(=O)O1)[C@]34O)O2 (stereo partly shown) [Avermectin B2a] | – | – | – | – | – | – | – | – | – | – | – | – | active |
| COc1ccc(CC(=O)N2CCN(S(=O)(=O)c3ccc(OC)c(OC)c3)C(C(=O)NCc3cc(C(F)(F)F)cc(C(F)(F)F)c3)C2)cc1OC (stereo not shown) [AKC 168] | OK (no effect (˜1000+ progeny)) | OK (no effect (˜1000+ progeny)) | OK (no effect (˜1000+ progeny)) | OK (no effect (˜1000+ progeny)) | OK (no effect (˜1000+ progeny)) | L3/#AD/B! | 90 | 5AD/B | 111 | 135 | 3AD/˜B | 217 | – |
| CC(C)(C)c1csc(NC(=O)CC2CCCc3ccccc32)n1 (stereo not shown) [AKC 175] | OK (no effect (˜1000+ progeny)) | OK (no effect (˜1000+ progeny)) | OK (no effect (˜1000+ progeny)) | OK (no effect (˜1000+ progeny)) | OK (no effect (˜1000+ progeny)) | < (reduced broodsize (250-500 progeny)) | 85 | L4/AD/B | 104 | 99 | L4/AD/B! | 159 | – |
| CC(=O)Nc1ccc(S(=O)(=O)N2CCN(C(=O)c3cc(C(F)(F)F)cc(C(F)(F)F)c3)CC2C(=O)NCc2ccccc2)cc1 (stereo not shown) [AKC 163] | OK (no effect (˜1000+ progeny)) | OK (no effect (˜1000+ progeny)) | OK (no effect (˜1000+ progeny)) | OK (no effect (˜1000+ progeny)) | < (reduced broodsize (250-500 progeny)) | – | 119 | L2/L3(DEAD) | 146 | 136 | – | 219 | – |
| CC(C)(C)c1csc(NC(=O)Cc2cn(Cc3cccnc3)c3ccc(Cl)cc23)n1 [AKC 162] | OK (no effect (˜1000+ progeny)) | OK (no effect (˜1000+ progeny)) | OK (no effect (˜1000+ progeny)) | OK (no effect (˜1000+ progeny)) | OK (no effect (˜1000+ progeny)) | < (reduced broodsize (250-500 progeny)) | 111 | L2/L3/1AD/B! | 136 | 111 | B (low broodsize (25-100 progeny)) | 179 | – |
